This note sets out measurements from EP0502314A1, “Benzimidazol, medicaments containing them and process for their preparation” (Dr. Karl Thomae GmbH, priority 1991, dated 1992).

Structures can show the parent of a compound that is named as a salt.

This assay concerns the target T1, Angiotensin II-Rezeptor (Rattus norvegicus, UniProt P25095).
T1 construct: Das Gewebe (Rattenlunge) wird in Tris-Puffer; from tissue; host or cells: rat lung homogenate (membrane pellet, 20,000 x g)
T1 sequence (P25095 1-359): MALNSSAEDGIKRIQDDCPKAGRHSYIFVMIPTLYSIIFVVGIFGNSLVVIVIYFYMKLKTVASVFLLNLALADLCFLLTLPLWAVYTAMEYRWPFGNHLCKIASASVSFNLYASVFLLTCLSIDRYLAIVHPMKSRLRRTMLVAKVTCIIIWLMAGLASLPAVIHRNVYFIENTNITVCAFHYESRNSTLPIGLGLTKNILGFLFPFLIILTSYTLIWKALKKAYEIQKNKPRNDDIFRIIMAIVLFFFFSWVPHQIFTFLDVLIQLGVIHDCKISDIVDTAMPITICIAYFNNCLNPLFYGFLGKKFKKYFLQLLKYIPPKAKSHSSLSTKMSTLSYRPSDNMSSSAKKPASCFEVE
Kind of assay: Angiotensin II receptor binding (displacement of [125I]-angiotensin II, rat lung homogenate). Details: species or system Ratte. As to conditions: Rattenlunge homogenate; 50 pM [125I]-Angiotensin II; 60 Min. bei 37°C; read-out: IC₅₀. As for the experimental part:
Methodenbeschreibung Angiotensin II-Rezeptorbindung
Das Gewebe (Rattenlunge) wird in Tris-Puffer (50 mMol Tris, 150 mMol NaCl, 5 mMol EDTA, pH 7.40) homogenisiert und zweimal je 20 Min. bei 20.000 x g zentrifugiert. Das endgültige Pellet wird in Inkubations-Puffer (50 mMol Tris, 5 mMol MgCl₂, 0,2 % BSA, pH 7,40) 1:75, bezogen auf das Feuchtgewicht des Gewebes, resuspendiert. Je 0,1 ml Homogenat wird für 60 Min. bei 37°C mit 50 pM [125^I]-Angiotensin II (NEN, Dreieich, FRG) und steigenden Konzentrationen der Testsubstanz in einem Gesamtvolumen von 0,25 ml inkubiert. Die Inkubation wird durch rasche Filtration durch Glasfiber-Filtermatten beendet. Die Filter werden je 4 ml eiskaltem Puffer (25 mMol Tris, 2.5 mMol MgCl₂, 0,1 % BSA, pH 7,40) gewaschen. Die gebundene Radioaktivität wird in einem Gamma-Counter ermittelt. Aus der Dosis-Wirkungskurve wird der entsprechende IC₅₀-Wert ermittelt.
In general terms: Loss of bound radioactivity is the signal in a displacement assay; it reports binding, not function.
As to `CCCCc1nc2c(C)ccc(OCCCn3ccnc3)c2n1Cc1ccc(-c2ccccc2C(=O)O)cc1` [Substanz A, 4'-[[2-n-Butyl-7-[3-(imidazol-1-yl)-propyloxy]-4-methyl-benzimidazol-1-yl]-methyl]-biphenyl-2-carbonsäure], the IC50 is 510 nM.
Regarding `CCCCc1nc2c(C)ccc(OCCCn3cnc4ccccc43)c2n1Cc1ccc(-c2ccccc2C(=O)O)cc1` [Substanz B, 4'-[[2-n-Butyl-7-[3-(benzimidazol-1-yl)-propyloxy]-4-methyl-benzimidazol-1-yl]-methyl]-biphenyl-2-carbonsäure-trifluoracetat], the IC50 worked out at 52 nM.
Turning to `CCCCc1nc2c(C)ccc(OCCCCn3cnc4c3CCCC4)c2n1Cc1ccc(-c2ccccc2C(=O)O)cc1` [Substanz C, 4'-[[2-n-Butyl-4-methyl-7-[4-(tetrahydrobenzimidazol-1-yl)-butyloxy]-benzimidazol-1-yl]-methyl]-biphenyl-2-carbonsäure], the IC50 was found to be 130 nM.
As for `CCCc1nc2c(C)cc(-c3nc4ccccc4n3C)cc2n1Cc1ccc(-c2ccccc2C(=O)O)cc1` [Substanz D, 4'-[[2-n-Propyl-4-methyl-6-(1-methylbenzimidazol-2-yl)-benzimidazol-1-yl]-methyl]-biphenyl-2-carbonsäure], the IC50 stood at 3.7 nM.
Consider `CCCc1nc2c(C)cc(-c3nc4ccccc4n3C)cc2n1Cc1ccc(-c2ccccc2-c2nnn[nH]2)cc1` [Substanz E, 4'-([2-n-Propyl-4-methyl-6-(1-methylbenzimidazol-2-yl)-benzimidazol-1-yl]-methyl]-2-(1H-tetrazol-5-yl)-biphenyl], for which the IC50 came out at 14 nM.
For `CCCc1nc2c(C)cc(N3Cc4ccccc4C3=O)cc2n1Cc1ccc(-c2ccccc2-c2nnn[nH]2)cc1` [Substanz F, 4'-[[2-n-Propyl-4-methyl-6-(1-oxo-isoindolin-2-yl)-benzimidazol-1-yl]-methyl]-2-(1H-tetrazol-5-yl)-biphenyl], the IC50 is 5 nM.
For `CCCc1nc2c(C)cc(N3CCCCS3(=O)=O)cc2n1Cc1ccc(-c2ccccc2-c2nn[nH]n2)cc1` [Substanz G, 4'-[[2-n-Propyl-4-methyl-6-(butansultam-1-yl)-benzimidazol-1-yl]-methyl]-2-(1H-tetrazol-5-yl)-biphenyl], the IC50 stood at 1.2 nM.
For the molecule `CCCCc1nc2c(C)cc(N3C(=O)C(C)=C(C)C3=O)cc2n1Cc1ccc(-c2ccccc2C(=O)O)cc1` [Substanz H, 4'-[[2-n-Butyl-6-(2,3-dimethylmaleinsäureimino)-4-methyl-benzimidazol-1-yl]-methyl]-biphenyl-2-carbonsäure-semihydrat], the IC50 was 20 nM.
For the molecule `CCCCc1nc2c(C)cc(NC(=O)C(C)C)cc2n1Cc1ccc(-c2ccccc2C(=O)O)cc1` [Substanz I, 4'-[[2-n-Butyl-6-(isopropylcarbonylamino)-4-methyl-benzimidazol-1-yl]-methyl]-biphenyl-2-carbonsäure], the IC50 is 6.6 nM.
For `CCCCc1nc2c(C)cc(NC(=O)N3CCOCC3)cc2n1Cc1ccc(-c2ccccc2C(=O)O)cc1` [Substanz J, 4'-[[2-n-Butyl-4-methyl-6-(morpholinocarbonylamino)-benzimidazol-1-yl]-methyl]-biphenyl-2-carbonsäure], the IC50 was determined as 3.5 nM.
In the case of `CCCCc1nc2c(C)cc(NC(=O)NC3CCCCC3)cc2n1Cc1ccc(-c2ccccc2C(=O)O)cc1` [Substanz K, 4'-[[2-n-Butyl-6-(cyclohexylaminocarbonylamino)-4-methyl-benzimidazol-1-yl]-methyl]-biphenyl-2-carbonsäure-semi-trifluoracetat] it was 17 nM.
Consider `CCCCc1nc2c(C)ccc(OCCCn3ccnc3)c2n1Cc1ccc(-c2ccccc2-c2nnn[nH]2)cc1` [Substanz L, 4'-[[2-n-Butyl-7-[3-(imidazol-1-yl)-propyloxy]-4-methyl-benzimidazol-1-yl]-methyl]-2-(1H-tetrazol-5-yl)-biphenyl], for which the IC50 was determined as 240 nM.
In the case of `Cc1cc(-c2nc3ccccc3n2C)cc2c1nc(C1CC1)n2Cc1ccc(-c2ccccc2C(=O)O)cc1` [Substanz M, 4'-[(2-Cyclopropyl-4-methyl-6-(1-methylbenzimidazol-2-yl)-benzimidazol-1-yl)-methyl]-biphenyl-2-carbonsäure] it was 12 nM; in that of `CCCc1nc2c(C)cc(-c3nc4cc(F)ccc4n3C)cc2n1Cc1ccc(-c2ccccc2C(=O)O)cc1` [Substanz N, 4'-[(2-n-Propyl-4-methyl-6-(1-methyl-5-fluor-benzimidazol-2-yl)-benzimidazol-1-yl)-methyl]-biphenyl-2-carbonsäure], 26 nM; in that of `CCCc1nc2c(C)cc(-c3cn4cccnc4n3)cc2n1Cc1ccc(-c2ccccc2-c2nnn[nH]2)cc1` [Substanz O, 4'-[(2-n-Propyl-4-methyl-6-(imidazo[1,2-a]pyrimidin-2-yl)-benzimidazol-1-yl)-methyl]-2-(1H-tetrazol-5-yl)-biphenyl], 3.4 nM.
In the case of `CCCc1nc2c(C)cc(-c3cn4c(n3)CCCC4)cc2n1Cc1ccc(-c2ccccc2C(=O)O)cc1` [Substanz P, 4'-[(2-n-Propyl-4-methyl-6-(5,6,7,8-tetrahydro-imidazo-[1,2-a]pyridin-2-yl)-benzimidazol-1-yl)-methyl]-biphenyl-2-carbonsäure] it was 1.2 nM; in that of `CCCc1nc2c(C)cc(-c3cn4c(n3)CCCC4)cc2n1Cc1ccc(-c2ccccc2-c2nnn[nH]2)cc1` [Substanz Q, 4'-[(2-n-Propyl-4-methyl-6-(5,6,7,8-tetrahydro-imidazo-[1,2-a]pyridin-2-yl)-benzimidazol-1-yl)-methyl]-2-(1H-tetrazol-5-yl)-biphenyl], 1.7 nM; in that of `CCCc1nc2c(Cl)cc(-c3nc4ccccc4n3C)cc2n1Cc1ccc(-c2ccccc2-c2nn[nH]n2)cc1` [Substanz R, 4'-[(2-n-Propyl-4-chlor-6-(1-methylbenzimidazol-2-yl)-benzimidazol-1-yl)-methyl]-2-(1H-tetrahol-5-yl)-biphenyl-hydrochlorid], 20 nM.
Turning to `CCCc1nc2c(C)cc(-c3cn4ccsc4n3)cc2n1Cc1ccc(-c2ccccc2C(=O)O)cc1` [Substanz S, 4'-[[2-n-Propyl-4-methyl-6-(imidazo[2,1-b]thiazol-6-yl)-benzimidazol-1-yl]-methyl]-biphenyl-2-carbonsäure], the IC50 amounted to 7.8 nM.
